For one series, the system named is Escherichia coli. Put plainly: toxicity to E. coli. In kind it is cell-based. The protocol:
Directed evolution is a powerful means to improve enzyme function. […] The experiments are performed using the fast-growing model organism, Escherichia coli, which permits evaluation of many variants of NicA2 for performance-enhancing mutations. […] Identification of these variants is expected to reveal the molecular determinants of wild-type NicA2's low O2-dependent activity.
Directed evolution is a powerful means to improve enzyme function. […] The experiments were performed using the fast-growing model organism, Escherichia coli, which permitted evaluation of many variants of NicA2 for performance-enhancing mutations. […] Identification of these variants is expected to reveal the molecular determinants of wild-type NicA2's low O2-dependent activity.

The conditions of series [1]: cited from earlier work.
For series [2], the target named is T1, Pseudomonas putida S16 nicotine oxidoreductase NicA2, wild type, SEQ ID NO:131 (Pseudomonas putida, UniProt F8G0P2). Particulars: anaerobic, pH 7.5, 4° C., 450 nm.
Target sequence in this assay (F8G0P2 2-482): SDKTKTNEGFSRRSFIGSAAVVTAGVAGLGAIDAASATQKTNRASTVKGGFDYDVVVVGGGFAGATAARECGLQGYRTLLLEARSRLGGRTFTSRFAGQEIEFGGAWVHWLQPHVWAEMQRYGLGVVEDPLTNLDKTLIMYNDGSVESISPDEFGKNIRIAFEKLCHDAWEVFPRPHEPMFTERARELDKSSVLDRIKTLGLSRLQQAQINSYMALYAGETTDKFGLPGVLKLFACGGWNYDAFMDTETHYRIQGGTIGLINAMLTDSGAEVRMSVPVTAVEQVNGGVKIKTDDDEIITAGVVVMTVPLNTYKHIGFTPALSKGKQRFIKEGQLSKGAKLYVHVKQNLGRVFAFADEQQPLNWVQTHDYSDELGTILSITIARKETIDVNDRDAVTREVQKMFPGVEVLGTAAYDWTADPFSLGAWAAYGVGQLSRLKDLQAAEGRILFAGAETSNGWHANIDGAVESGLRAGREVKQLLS
Description: All stopped-flow experiments were performed in 40 mM HEPES-KOH, pH 7.5, 100 mM NaCl, 10% glycerol at 4° C. NicA2 and CycN solutions were made anaerobic in glass tonometers by repeated cycles with vacuum and anaerobic argon^42. When needed, NicA2's FAD was reduced in the anaerobic tonometer by titrating with a dithionite solution housed in a gas-tight Hamilton syringe. The dithionite solution was slowly added up to the point where NicA2's flavin reached the fully-reduced hydroquinone state, and the redox status of the flavin was spectrophotometrically monitored during the titration using a Shimadzu UV-1900 UV-VIS spectrophotometer. […] The various O2/N2 gas ratios were prepared from O2 and N2 gas cylinders using a Maxtec MaxBlend 2 gas mixer, and the dissolved O2 concentration in the buffer solution was calculated using a Henry's law constant for O2 of 770 atm M^−1.
Stopped-flow experiments were conducted using a TgK Scientific SF-61 DX2 KinetAsyst stopped-flow instrument that had been previously equilibrated with a glucose/glucose oxidase solution to make the internal components of the system anaerobic. […] The reaction of NicA2-Flred with O2 was monitored using the instrument's multi-wavelength CCD detector (1.6 ms data interval time). […]
For series [3], the target named is T1, Pseudomonas putida S16 nicotine oxidoreductase NicA2, wild type, SEQ ID NO:131. The note with it: WT P. putida S16; about 5 mM nicotine degraded by about 3.5 nM NicA2 in 16 hours.
Target sequence in this assay (F8G0P2 39-482): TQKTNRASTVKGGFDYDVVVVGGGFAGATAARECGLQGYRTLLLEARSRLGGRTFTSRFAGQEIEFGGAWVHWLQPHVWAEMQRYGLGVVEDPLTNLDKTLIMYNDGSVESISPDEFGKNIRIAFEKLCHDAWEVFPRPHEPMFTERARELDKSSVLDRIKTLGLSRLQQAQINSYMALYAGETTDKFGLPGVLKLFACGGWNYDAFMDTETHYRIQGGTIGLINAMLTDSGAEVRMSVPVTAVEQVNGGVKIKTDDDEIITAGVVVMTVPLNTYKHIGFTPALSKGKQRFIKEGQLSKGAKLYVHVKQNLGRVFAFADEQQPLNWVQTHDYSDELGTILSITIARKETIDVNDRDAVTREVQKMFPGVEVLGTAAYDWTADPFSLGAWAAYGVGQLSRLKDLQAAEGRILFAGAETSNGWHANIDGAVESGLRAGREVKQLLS
Description: Both wild-type and ΔcycN strains were grown overnight in LB. The next day, these cultures were diluted to OD 0.1 in 5 mL M9 salts+0.4% glycerol and allowed to grow for 2 hours. […] From then on, the cultures were sampled at 2, 4, 8, 24, and 49 hours. 200 μL of culture was extracted at each time point and spun down at 16,000 g for 10 minutes. The supernatant was isolated, and 100 μL supernatant was mixed with 300 μL methanol to prepare HPLC samples. The cell pellet was resuspended in 100 μL Bacterial Protein Extraction Reagent (B-PER; Thermo Fisher) and allowed to incubate at room temperature for 15 minutes to complete lysis. After this time had elapsed, 25 μL of 5× reducing gel loading buffer was added to each sample.
Samples for HPLC were further clarified by spinning at 16,000 g for 30 minutes. 100 μL of each clarified sample was placed into autosampler vials. […] Samples and standards were within the linear range of detection, and the absorbance peaks were integrated for quantification.
Samples for western blot analysis were boiled for 5 minutes. […] Protein bands were quantified using LI-COR Odyssey software, and the NicA2 standard curve was used to determine the linear range of detection and concentration of NicA2 at each time point from the experiment.
Series [4] has as its system Pseudomonas putida S16 nicotine oxidoreductase NicA2, wild type, SEQ ID NO:131. Particulars: in vitro, cited from earlier work.
Series [5] concerns the target T1, Pseudomonas putida S16 nicotine oxidoreductase NicA2, wild type, SEQ ID NO:131. Particulars: estimated from reported doubling time of one hour.
Target sequence in this assay (F8G0P2 39-482): as above
The subject of series [6] is L-6-hydroxynicotine oxidase (LHNO, 3NG7), wild type, SEQ ID NO:13. Particulars: cited from earlier work; for kcat/Km: wild-type LHNO.
For series [7], the target named is T1, Pseudomonas putida S16 nicotine oxidoreductase NicA2, wild type, SEQ ID NO:131.
Target sequence in this assay (F8G0P2 2-482): as the sequence (F8G0P2 2-482) above
Description: All stopped-flow experiments were performed in 40 mM HEPES-KOH, pH 7.5, 100 mM NaCl, 10% glycerol at 4° C. NicA2 and CycN solutions were made anaerobic in glass tonometers by repeated cycles with vacuum and anaerobic argon^42. When needed, NicA2's FAD was reduced in the anaerobic tonometer by titrating with a dithionite solution housed in a gas-tight Hamilton syringe. The dithionite solution was slowly added up to the point where NicA2's flavin reached the fully-reduced hydroquinone state, and the redox status of the flavin was spectrophotometrically monitored during the titration using a Shimadzu UV-1900 UV-VIS spectrophotometer. […] Buffer containing O2 at specific concentrations was prepared by sparging different O2/N2 gas ratios through buffer in a gas-tight syringe for at least 15 minutes at room temperature. The various O2/N2 gas ratios were prepared from O2 and N2 gas cylinders using a Maxtec MaxBlend 2 gas mixer, and the dissolved O2 concentration in the buffer solution was calculated using a Henry's law constant for O2 of 770 atm M^−1.
Stopped-flow experiments were conducted using a TgK Scientific SF-61 DX2 KinetAsyst stopped-flow instrument that had been previously equilibrated with a glucose/glucose oxidase solution to make the internal components of the system anaerobic. […] The reaction of NicA2-Flred with O2 was monitored using the instrument's multi-wavelength CCD detector (1.6 ms data interval time). […] Kinetic traces were fit to sums of exponentials using KaleidaGraph (Synergy Software) to determine observed rate constants.
We next monitored the reaction of NicA2-Flred with O2 in the oxidative half reaction via stopped-flow experiments.

Several values for one entry are separate records, joined by “and”; a condition that tells them apart may be missing. Identical values can stand only once. Like-named read-outs stand apart in the source and are kept apart here.

Turning to `CNCCCC(=O)c1cccnc1` [pseudooxynicotine], the “concentration up to which non-toxic to E. coli” value in the series on Escherichia coli (e. coli culture) was “at least 5 mg/mL”. In series [1], the “addictiveness in animal models” value is “non-addictive” and the “toxicity in animal models” value was “non-toxic”.
As for `CN1CCC[C@H]1c1cccnc1` [nicotine], the “kobs (fastest phase, reduction of NicA2's FAD by nicotine)” value in series [2] was “about 180 s^−1”. Also, in series [3], the “in vivo turnover rate” value is listed as “about 24 s^−1”. The “turnover number (O2-dependent nicotine turnover)” value in series [4] (O2 as electron acceptor) was 0.007 s⁻¹. Also, the “kcat (conversion of nicotine to pseudooxynicotine)” value in series [4] (oxygen as electron acceptor) is 0.007 s⁻¹. Besides, in the series with Escherichia coli (about this level or higher), the “concentration toxic to E. coli” value was “about 1 mg/mL”. In addition, the “in vivo turnover rate (kcat)” value in series [5] is 1 s⁻¹. Also, the “kcat for degrading nicotine relative to NicA2” value in series [6] (oxygen dependent reaction) is listed as 5 fold.
Turning to `O=O` [O2, molecular oxygen], the “kobs of NicA2-Flred oxidation by O2” value in series [7] (at ~250 μM O2, calculated from bimolecular rate constant) was 0.007 s⁻¹. The “bimolecular rate constant for flavin oxidation by O2 (kox^O2)” value in series [7] (pH 7.5, 4° C., 450 nm) is 27 ± 1 M⁻¹ s⁻¹ and 27 M⁻¹ s⁻¹. Besides, the kcat in series [6] (reaction with oxygen) was 78 s⁻¹.
Turning to `CN1CCC[C@H]1c1cccnc1` [L-nicotine], the catalytic efficiency (kcat/Km) in series [6] is 42 M⁻¹ s⁻¹.
For the molecule `CN1CCC[C@H]1c1ccc(O)nc1` [L-6-hydroxynicotine], the kcat in series [6] (O2 as the electron acceptor for flavin oxidation, substrate L-6-hydroxynicotine) was 78 s⁻¹. The specificity constant (kcat/Km) in series [6] is 600000 M⁻¹ s⁻¹.

Usually kcat stands for the maximal rate divided by the concentration of active sites. What is called kcat/Km is the turnover number divided by the Michaelis constant.

Source of the values: patent US20230212533A1 (THE REGENTS OF THE UNIVERSITY OF MICHIGAN, priority 2020, published 2023).
